Reference: patent US11339171B2, “MDM2 inhibitors” (Gan & Lee Pharmaceuticals, priority 2017, dated 2022)
“And” between values parts separate entries of the source, which are not always exact repeats. Equal values may be shown once. Read-outs that look alike come from different tables or passages of the source.

Assays:
[1] = target: T1, MDM2 (Homo sapiens, UniProt Q00987); test: Inhibition test of MDM2-P53 (GST-MDM2, Biotin-P53, Anti-GST-Tb, SA-XL665); format: binding
T1 construct: made in house
T1 sequence (Q00987 whole entry): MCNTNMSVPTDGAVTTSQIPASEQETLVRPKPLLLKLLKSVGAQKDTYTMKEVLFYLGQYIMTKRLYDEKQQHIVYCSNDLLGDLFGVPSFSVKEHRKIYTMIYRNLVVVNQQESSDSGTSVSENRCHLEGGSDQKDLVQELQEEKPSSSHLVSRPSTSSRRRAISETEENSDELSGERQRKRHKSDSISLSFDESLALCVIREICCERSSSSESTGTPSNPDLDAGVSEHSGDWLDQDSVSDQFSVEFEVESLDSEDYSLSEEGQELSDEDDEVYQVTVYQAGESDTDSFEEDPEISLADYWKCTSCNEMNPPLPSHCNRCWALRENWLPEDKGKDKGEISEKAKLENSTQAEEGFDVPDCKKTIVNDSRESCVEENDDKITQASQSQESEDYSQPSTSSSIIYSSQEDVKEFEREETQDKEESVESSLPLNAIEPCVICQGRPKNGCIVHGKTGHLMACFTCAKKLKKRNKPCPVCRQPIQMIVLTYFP
Method in brief: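 Compounds, serially diluted 5-fold (twelve concentrations), were shaken for 90 min at 25° C with a mix of GST-MDM2 (4 nM final), Biotin-P53, anti-GST-Tb and SA-XL665. Buffer: 1×PBS, 0.1% BSA, 5 mM DTT, 1 mM AEBSF; signal read on a microplate reader.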

[2] = Pharmacokinetics in ICR mice after intravenous and intragastric administration; format: in vivo; conditions: for MRT last: read-out: MRT(0-t); for MRT inf: read-out: MRT(0-∞); for Vd: read-out: Vz; for bioavailability: PO 5 mg/kg vs IV 2 mg/kg, from mean values, read-out: F* (bioavailability)
Method in brief: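 Single-dose mouse PK study: i.v. 2 mg/kg and intragastric 5 mg/kg to fasted male ICR mice, three animals per arm. Exposure and disposition parameters (Cmax, Tmax, AUC, t1/2, F, CL, Vz) came from LC-MS/MS plasma levels.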

[3] = tested on: human osteosarcoma cell line SJSA-1; test: Inhibition of proliferation of human osteosarcoma cell line SJSA-1 (DAPI staining, In Cell Analyzer); conditions: Homo sapiens, SJSA-1, 72 h, read-out: IC50 (nM), inhibitory activity on proliferation of human osteosarcoma cell line SJSA-1, SJSA-1, incubated 72 h
[4] = ICR mice, IV 2 mg/kg, individual animal, 2 mg/kg
[5] = ICR mice, PO 5 mg/kg, individual animal, 5 mg/kg
[6] = male, ICR, mouse, plasma, iv, 2 mg/kg, ICR mice, IV 2 mg/kg, individual animal
[7] = male, ICR, mouse, plasma, iv, 2 mg/kg, ICR mice, IV 2 mg/kg, individual animal, read-out: AUC(0-t)
[8] = male, ICR, mouse, plasma, iv, 2 mg/kg, ICR mice, IV 2 mg/kg, individual animal, read-out: Cmax
[9] = male, ICR, mouse, plasma, iv, 2 mg/kg, ICR mice, IV 2 mg/kg, individual animal, read-out: t1/2 (converted)
[10] = male, ICR, mouse, plasma, iv, 2 mg/kg, ICR mice, IV 2 mg/kg, mean of 3 animals
[11] = male, ICR, mouse, plasma, iv, 2 mg/kg, ICR mice, IV 2 mg/kg, mean of 3 animals, read-out: AUC(0-t)
[12] = male, ICR, mouse, plasma, iv, 2 mg/kg, ICR mice, IV 2 mg/kg, mean of 3 animals, read-out: Cmax
[13] = male, ICR, mouse, plasma, iv, 2 mg/kg, ICR mice, IV 2 mg/kg, mean of 3 animals, read-out: Tmax
[14] = male, ICR, mouse, plasma, iv, 2 mg/kg, ICR mice, IV 2 mg/kg, mean of 3 animals, read-out: t1/2 (converted)
[15] = male, ICR, mouse, plasma, po, 5 mg/kg, ICR mice, PO 5 mg/kg, individual animal
[16] = male, ICR, mouse, plasma, po, 5 mg/kg, ICR mice, PO 5 mg/kg, individual animal, read-out: Tmax
[17] = male, ICR, mouse, plasma, po, 5 mg/kg, ICR mice, PO 5 mg/kg, individual animal, read-out: t1/2 (converted)
[18] = male, ICR, mouse, plasma, po, 5 mg/kg, ICR mice, PO 5 mg/kg, mean of 3 animals
[19] = male, ICR, mouse, plasma, po, 5 mg/kg, ICR mice, PO 5 mg/kg, mean of 3 animals, read-out: AUC(0-t)
[20] = male, ICR, mouse, plasma, po, 5 mg/kg, ICR mice, PO 5 mg/kg, mean of 3 animals, read-out: Cmax
[21] = male, ICR, mouse, plasma, po, 5 mg/kg, ICR mice, PO 5 mg/kg, mean of 3 animals, read-out: Tmax
[22] = male, ICR, mouse, plasma, po, 5 mg/kg, ICR mice, PO 5 mg/kg, mean of 3 animals, read-out: t1/2 (converted)
[23] = male, ICR, mouse, plasma, po, 5 mg/kg, oral intragastric administration 5 mg/kg, read-out: AUC0-t
[24] = male, ICR, mouse, plasma, po, 5 mg/kg, oral intragastric administration 5 mg/kg, read-out: half-life (converted)

## COc1ccc(-c2nc3c(n2C(C)C)[C@@]2(C(=O)Nc4cc(Cl)ccc42)N(c2cc(Cl)cnc2C)C3=O)c(OC)c1 [Example S-61, (S)-6-chloro-5′-(5-chloro-2-methylpyridin-3-yl)-2′-(2,4-dimethoxyphenyl)-3′-isopropyl-3′H-spiro[dihydroindole-3,4′-pyrrolo[3,4-d]imidazole]-2,6′(5′H)-dione]
[1]
  IC50: 1.31 nM
[2]; [4]
  AUC(0-t): 5346.76 ng·h/mL and 4640.74 ng·h/mL
  AUC(0-∞): 5483.62 ng·h/mL and 4724.28 ng·h/mL
  CL: 6.08 mL/min/kg and 7.06 mL/min/kg
  Cmax: 3244.96 ng/mL and 2994.43 ng/mL
  MRT(0-t): 1.26 h and 1.21 h
  MRT(0-∞): 1.42 h and 1.32 h
  Vz: 0.60 L/kg and 0.67 L/kg
  t1/2: 1.15 h and 1.09 h
[2]; [5]
  AUC(0-t): 2462.65 ng·h/mL and 4960.30 ng·h/mL and 3162.34 ng·h/mL
  AUC(0-∞): 5500.70 ng·h/mL and 3530.81 ng·h/mL
  Cmax: 2489.40 ng/mL and 1772.67 ng/mL
  MRT(0-t): 2.03 h and 1.91 h
  MRT(0-∞): 3.00 h
  Tmax: 0.50 h
  t1/2: 2.71 h and 2.98 h
[2]; [6]
  AUC(0-inf): 3630 ng·h/mL
  clearance: 9.19 mL/min/kg
  MRT last: 0.99 h
  MRT inf: 1.07 h
  Vd: 0.8 L/kg
[2]; [7]
  AUC(0-t): 3580 ng·h/mL
[2]; [8]
  Cmax: 3250 ng/mL
[2]; male, ICR, mouse, plasma, iv, 2 mg/kg, ICR mice, IV 2 mg/kg, individual animal, read-out: Tmax
  Tmax: 0.08 h
[2]; [9]
  half-life: 1 h
[2]; [10]
  AUC(0-inf): 4610 ng·h/mL
  clearance: 7.44 mL/min/kg
  MRT last: 1.15 h
  MRT inf: 1.27 h
  Vd: 0.69 L/kg
[2]; [11]
  AUC(0-t): 4520 ng·h/mL
[2]; [12]
  Cmax: 3160 ng/mL
[2]; [13]
  Tmax: 0.083 h
[2]; [14]
  half-life: 1.08 h
[2]; [15]
  AUC(0-inf): 2770 ng·h/mL
  MRT last: 1.57 h
  MRT inf: 2.85 h
[2]; male, ICR, mouse, plasma, po, 5 mg/kg, ICR mice, PO 5 mg/kg, individual animal, read-out: Cmax
  Cmax: 2430 ng/mL
[2]; [16]
  Tmax: 0.25 h
[2]; [17]
  half-life: 3.58 h
[2]; [18]
  AUC(0-inf): 3930 ng·h/mL
  MRT last: 1.84 h
  MRT inf: 2.95 h
[2]; [19]
  AUC(0-t): 3530 ng·h/mL
[2]; [20]
  Cmax: 2230 ng/mL
[2]; [21]
  Tmax: 0.33 h
[2]; [22]
  half-life: 3.09 h
[2]; [23]
  AUC(0-t): 3530 ng·h/mL
[2]; [24]
  half-life: 3.09 h
[2]; male, mouse, plasma, ICR mice
  bioavailability: 31.2%
[3]
  IC50: 5.5 nM

## COc1cc(C(C)C)ccc1-c1nc2c(n1C(C)C)[C@@]1(C(=O)Nc3cc(Cl)ccc31)N(c1cc(Cl)ccc1C)C2=O [Example S-32, (S)-6-chloro-5′-(5-chloro-2-methylphenyl)-3′-isopropyl-2′-(4-isopropyl-2-methoxyphenyl)-3′H-spiro[dihydroindole-3,4′-pyrrolo[3,4-d]imidazole]-2,6′(5′H)-dione]
[1]
  IC50: 3.89 nM
[2]; [4]
  AUC(0-t): 3859.04 ng·h/mL and 4699.29 ng·h/mL
  AUC(0-∞): 4004.98 ng·h/mL and 4854.66 ng·h/mL
  CL: 8.323 mL/min/kg and 6.8663 mL/min/kg
  Cmax: 1902.13 ng/mL and 2766.01 ng/mL
  MRT(0-t): 1.29 h and 1.32 h
  MRT(0-∞): 1.53 h
  Tmax: 0.50 h and 0.08 h and 0.25 h
  Vz: 0.90833 L/kg and 0.7302 L/kg
  t1/2: 1.26 h and 1.23 h
[2]; [5]
  AUC(0-t): 10704.89 ng·h/mL and 8458.06 ng·h/mL
  AUC(0-∞): 11027.74 ng·h/mL and 9168.53 ng·h/mL
  Cmax: 1578.70 ng/mL and 3356.31 ng/mL and 2518.33 ng/mL
  MRT(0-t): 2.24 h and 2.48 h
  MRT(0-∞): 2.48 h and 3.14 h
  t1/2: 1.51 h and 2.07 h
[2]; [6]
  AUC(0-inf): 7630 ng·h/mL
  clearance: 4.37 mL/min/kg
  MRT last: 1.61 h
  MRT inf: 1.97 h
  Vd: 0.543 L/kg
[2]; [7]
  AUC(0-t): 7200 ng·h/mL
[2]; [8]
  Cmax: 2450 ng/mL
[2]; [9]
  half-life: 1.44 h
[2]; [10]
  AUC(0-inf): 5500 ng·h/mL
  clearance: 6.52 mL/min/kg
  MRT last: 1.41 h
  MRT inf: 1.68 h
  Vd: 0.727 L/kg
[2]; [11]
  AUC(0-t): 5250 ng·h/mL
[2]; [12]
  Cmax: 2370 ng/mL
[2]; [13]
  Tmax: 0.278 h
[2]; [14]
  half-life: 1.31 h
[2]; [15]
  AUC(0-inf): 7100 ng·h/mL
  MRT last: 2.79 h
  MRT inf: 4.22 h
[2]; male, ICR, mouse, plasma, po, 5 mg/kg, ICR mice, PO 5 mg/kg, individual animal, read-out: AUC(0-t)
  AUC(0-t): 6020 ng·h/mL
[2]; [16]
  Tmax: 1 h
[2]; [17]
  half-life: 2.89 h
[2]; [18]
  AUC(0-inf): 9100 ng·h/mL
  MRT last: 2.5 h
  MRT inf: 3.28 h
[2]; [19]
  AUC(0-t): 8390 ng·h/mL
[2]; [20]
  Cmax: 2480 ng/mL
[2]; [21]
  Tmax: 1 h
[2]; [22]
  half-life: 2.16 h
[2]; [23]
  AUC(0-t): 8390 ng·h/mL
[2]; [24]
  half-life: 2.16 h
[2]; male, mouse, plasma, ICR mice
  bioavailability: 63.9%
[3]
  IC50: 10.1 nM
